These results are taken from publication PMC9781268, “2-Arylpropionic Acid Pyrazolamides as Cannabinoid CB2 Receptor Inverse Agonists Endowed with Anti-Inflammatory Properties” (Pharmaceuticals, 2022).

For orientation: Papp means the rate of passage across a membrane or cell layer, normalised by area and donor concentration. What is called melting point is the temperature of the solid-liquid transition. Usually solubility stands for how much of the substance goes into solution per volume. Read a high solubility as much dissolved substance.

Converted amounts (≈) assume the structure as drawn.

Data set [1] can be described thus: Parallel artificial membrane permeability assay, gastrointestinal (PAMPA-GI / PAMPA-GTI). The settings on record: for Pe Exp / Classification / Fa: Table S1, PAMPA-GTI; for Papp at 8 h, 0.5 mM: PAMPA; for Fa / PAMPA-GI Fa Exp: absorbed fraction; for PAMPA-GI Fa Exp: soybean L-α-phosphatidylcholine membrane. Background: PAMPA measures passive passage across an artificial lipid membrane.
Experimental: A 10 mM solution of each compound (tests and controls) was prepared in DMSO. Then, in a 5 mL glass flask, 250 µL of the freshly prepared solution was homogenized with 4750 µL of PBS at pH 6.6 to a concentration of 10 mM. The solution was then filtered in a 0.45 µm PVDF filter and set aside. Then, 180 µL of a solution of phosphate-bufffered saline (PBS, pH 7.4):DMSO (95:5) was added to the wells of the receptor plate, and 5 µL of the soy L-α-phosphatidylcholine lipid solution (20 mg/mL in dodecane) was added to the wells of the donor plate. After 5 min, the donor plate received 180 µL of the reserved solution containing each compound. […] After this period, the donor plate was removed, and the contents of the recipient plate were transferred to a UV reading plate and read (SpectraMax 5, Molecular Devices) at the maximum wavelengths for each compound. The blank was prepared with 180 µL of PBS solution (pH 7.4):DMSO (95:5). The experiments were carried out in triplicate with two different analyses (n = 2) [37]. The optical density values obtained from the readings at each selected wavelength for each of the compounds were analyzed by comparison with the values of the controls. These values were used to determine the absorbed fraction (Fa %) using the JMP® program version 10.0.

Data set [2] can be described thus: Parallel artificial membrane permeability assay, blood-brain barrier (PAMPA-BBB). The settings on record: for PAMPA-BBB Score: porcine brain lipid membrane. Here is the method: In a 5 mL glass vial, 1 mg of each compound (test or control) was dissolved in 1 mL of ethanol. Then, 500 μL of ethanol and 3.5 mL of PBS at pH 7.4 were added to this solution. […] After 5 min, the donor plate received 180 μL of each compound solution in triplicate. […] The experiments were performed in triplicate with two different analyses (n = 2).

For data set [3] the following is noted: Table S2, PAMPA-BBB, drugs used as standard; cited from earlier work.
On the set-up of data set [4]: method as in ZHU et al., 2002. The settings on record: Table S1, PAMPA-GTI, drugs used as standard; ref ZHU et al., 2002; cited from earlier work.
Data set [5] is described as follows: Distribution coefficient at pH 7.4 (shake-flask, octanol/phosphate buffer). It counts as physicochemical. The settings on record: 1-octanol/buffer pH 7.4; n-octanol/buffer partitioning at pH 7.4, UV method; read-out: Log D7.4. On the procedure: The assay was performed based on the shake-flask method and the absorbance readings by ultraviolet spectroscopy at maximum absorbance wavelength. To a Falcon tube with a capacity of 15 mL, 5 mL of buffer solution at pH 7.4 and 5 mL of 1-octanol were added. Then, the tested compounds were added at defined concentrations of approximately 10–15 µM, and the mixtures were homogenized via vigorous manual shaking. Next, the Falcon tubes were stirred for 4 h at 37 °C, and the experiment was carried out in triplicate for each compound. Subsequently, each sample was placed in a separatory funnel, and the collected aqueous phase was filtered through a 0.45 µm PVDF filter and transferred to a quartz cuvette (10 mm optical path) for UV/Vis reading. The distribution coefficient of each compound at pH 7.4 was determined by linear regression using the straight-line equation [33].

The subject of data set [6] is plasma carboxylesterases. Put plainly: Plasma stability against enzymatic hydrolysis. It is filed as in vitro ADME, Wistar rats. The conditions noted are these: rat plasma, determined after 240 min. On the procedure:
For the evaluation of plasma stability against plasma carboxylesterases, a pool of plasma male Wistar rats weighing 300–360 g kept in the vivarium of the Laboratory of Biochemical and Molecular Pharmacology-UFRJ was used. Blood was collected with heparin and kept on ice. Then, the samples were centrifuged at 2000 rpm for 15 min at 20 °C, with subsequent removal of the plasma. The plasma was then diluted 80% (v/v) with phosphate buffer (PBS; pH = 7.4) at 37 °C. The experiments performed in this work were approved by the Ethics Committee on the Use of Animals in Scientific Experiments of the Health Sciences Center of the Federal University of Rio de Janeiro (Number 028/15). The biological matrix was incubated at 37 °C under agitation for 30, 60, 120, and 240 min. The degree of degradation was evaluated by HPLC-PDA with methyl 1,1′bisphenyl-4-carboxylate as an internal standard (PI), using an isocratic mobile phase of 70%:30% acetonitrile:water (0–15 min), an injection volume of 20 μL, a flow rate of 1 mL/min, and detection at 254 nm.

Data set [7] in a line: Aqueous solubility (thermodynamic, UV spectroscopy). The settings on record: aqueous buffer, thermodynamic from solid, phosphate buffer pH 7.4, 37 °C. It is filed as physicochemical. Here is the method: The test was performed based on the absorbance obtained by ultraviolet spectroscopy. The scanning wavelength was determined according to the highest absorbance observed for each compound. Saturated aqueous solution of the analyzed compounds were stirred for 4 h at 37 °C, and then filtered through a 0.45 µm PVDF filter and transferred to a quartz cuvette (10 mm optical path) for reading. Solubility was determined by linear regression based on the equation of the line.

The test system of data set [8] is formalin-induced licking behavior in mice. Description: Formalin-induced licking behavior. The settings on record: morphine 2.5 mg/kg i.p., ASA 200 mg/kg p.o., LASSBio-2265 1, 3 and 10 mg/kg p.o., compared to vehicle. It is filed as in vivo, Swiss Webster mice. Here is the method: This assay was performed as described by Hunskaar et al. and adapted by Gomes et al.. This model was characterized by a response that occurred in two phases. The first phase (acute neurogenic pain) occurred during the first 5 min after the intraplantar injection of formalin, and the second phase (inflammatory pain) occurred 15 to 30 min post-injection. Mice were pretreated with oral doses of LASSBio-2265 (11, at 1, 3 or 10 mg/kg, p.o.), morphine (2.5 mg/kg, i.p.), acetylsalicylic acid (ASA, 200 mg/kg, p.o.), or the vehicle (same amount of DMSO used to solubilize the substances + NaCl 0.9%) 60 min before the administration of formalin. […] Then, mice (n = 7 per group) received 20 μL of formalin (2.5% v/v) in the dorsal surface of the left hind paw. The time that the mice spent licking the injected paw was immediately recorded. […] The final volume administered to mice was 0.1 mL.

Setting [9] is: PAMPA, 2.75 h, 0.2 mg/mL, pH 7.4.

`Nc1nc2c(ncn2COCCO)c(=O)[nH]1` [Acyclovir, reference compound]: the “Pe Exp” value in [1] is recorded as 0,08 10-6 cm/s.
As for `CC(C)NCC(O)COc1ccc(CC(N)=O)cc1` (stereo not shown) [Atenolol, reference compound], the Pe experimental in [2] (setting [9]) is reported as 0,46 10-6 cm s-1. For the same compound, in data set [2] (Table S2, PAMPA-BBB), the Classification entry is recorded as “CNS -”. In addition, in data set [3], the Pe literatura is listed as 0,8 10-6 cm s-1. In addition, in data set [4], the “Pe Lit” value is 0,1 10-6cm/s.
Consider `Cn1c(=O)c2c(ncn2C)n(C)c1=O` [Caffeine, reference compound], for which the Pe experimental in data set [2] (setting [9]) is 0,81 10-6 cm s-1. Besides, the Classification result in [2] (Table S2, PAMPA-BBB) was “CNS -”. The Pe literatura in data set [3] is 1,3 10-6 cm s-1.
Compound `Cc1c(NC(=O)C(C)c2ccc(CC(C)C)cc2)c(=O)n(-c2ccccc2)n1C` (stereo not shown) [Compound 7, N-(1,5-dimethyl-3-oxo-2-phenyl-2,3-dihydro-1H-pyrazol-4-yl)-2-(4-isobutylphenyl) propanamide] came in with a melting point of 151.2 °C. The compound also came in with an apparent permeability (Papp) at 2.75 h, 0.2 mg/mL in data set [2] (PAMPA, pH 7.4) of 12.8 ×10⁻⁶ cm/s. In data set [2] (Table S2, PAMPA-BBB), the Classification result was “CNS +” and the Pe experimental is on record as 12,77 10-6 cm s-1. Further, the “PAMPA-BBB Score” value in data set [2] is reported as “CNS+ (CNS+ (high predicted BBB permeability) Pe > 4.0 × 10^−6 cm/s)”. Also, in [1], the Papp at 8 h, 0.5 mM amounted to 15.4 ×10⁻⁶ cm/s; the Classification result is given as “HIGH (high intestinal permeability: >70%)”; the “Pe Exp” value is given as 15,38 10-6 cm/s; the Fa is 99,71%. The “PAMPA-GI Fa Exp” value in [1] was determined as 99.71%. For the same compound, in data set [5], the logD was found to be 2.47. Moreover, in [6], the “Plasma Metabolization Rate” value was 56.13%. This compound also had a solubility at 4 h in data set [7] of 12.1 µM (≈ 4.75 µg/mL).
`Cc1c(NC(=O)C(C)c2ccc(-c3ccccc3)c(F)c2)c(=O)n(-c2ccccc2)n1C` (stereo not shown) [Compound 8, N-(1,5-dimethyl-3-oxo-2-phenyl-2,3-dihydro-1H-pyrazol-4-yl)-2-(2-fluoro-[1,1^′-biphenyl]-4-ylil) propanamide] showed a melting point of 214.8 °C. In addition, the Papp at 2.75 h, 0.2 mg/mL in data set [2] (PAMPA, pH 7.4) was 17.2 ×10⁻⁶ cm/s. In data set [2] (Table S2, PAMPA-BBB), the Classification result was “CNS +” and the Pe experimental is listed as 17,25 10-6 cm s-1. In addition, the “PAMPA-BBB Score” value in data set [2] was “CNS+ (CNS+ (high predicted BBB permeability) Pe > 4.0 × 10^−6 cm/s)”. Moreover, in [1], the Papp at 8 h, 0.5 mM worked out at 9.69 ×10⁻⁶ cm/s; the Classification entry is “HIGH (high intestinal permeability: >70%)”; the “Pe Exp” value is recorded as 9,69 10-6 cm/s; the Fa is 97,49%. Moreover, the “PAMPA-GI Fa Exp” value in [1] is listed as 97.49%. Besides, the logD in data set [5] was determined as 1.94. Also, the “Plasma Metabolization Rate” value in [6] is on record as 18.66%. This compound also showed a solubility at 4 h in [7] of 59.1 µM (≈ 25.4 µg/mL).
In turn, `Cc1c(N(C)C(=O)C(C)c2ccc(CC(C)C)cc2)c(=O)n(-c2ccccc2)n1C` (stereo not shown) [Compound 10, N-(1,5-dimethyl-3-oxo-2-phenyl-2,3-dihydro-1H-pyrazol-4-yl)-2-(4-isobutylphenyl)-N-methylpropanamide] gave an apparent permeability coefficient (Papp) at 2.75 h, 0.2 mg/mL in data set [2] (PAMPA, pH 7.4) of 12.7 ×10⁻⁶ cm/s. Besides, in data set [2] (Table S2, PAMPA-BBB), the Classification result is “CNS +” and the Pe experimental is reported as 12,68 10-6 cm s-1. Moreover, the “PAMPA-BBB Score” value in [2] is “CNS+ (CNS+ (high predicted BBB permeability) Pe > 4.0 × 10^−6 cm/s)”. In data set [1], the Papp at 8 h, 0.5 mM was 2.51 ×10⁻⁶ cm/s; the Classification entry is “HIGH (high intestinal permeability: >70%)”; the “Pe Exp” value was 9,15 10-6 cm/s; the Fa is listed as 96,91%. Moreover, the logD in data set [5] amounted to 2.43. In addition, the “Plasma Metabolization Rate” value in data set [6] came to 32.50%. In [7], the solubility at 4 h was 47.7 µM (≈ 19.3 µg/mL).
In the case of `O=c1ccc2ccccc2o1` [Coumarin, reference compound], in [1], the Classification entry is listed as “HIGH (high intestinal permeability: >70%)”, the “Pe Exp” value is 22,65 10-6 cm/s and the Fa was 99,98%.
Consider `CN1C(=O)CN=C(c2ccccc2)c2cc(Cl)ccc21` [Diazepam, reference compound], for which, in [2] (Table S2, PAMPA-BBB), the Classification result is reported as “CNS +” and the Pe experimental is 14,30 10-6 cm s-1. In addition, the Pe literatura in [3] is 16 10-6 cm s-1.
With `O=C(O)Cc1ccccc1Nc1c(Cl)cccc1Cl` [Diclofenac, reference compound], the “Pe Lit” value in data set [4] is 12,5 10-6cm/s.
Regarding `CCn1cc(C(=O)O)c(=O)c2cc(F)c(N3CCNCC3)nc21` [Enoxacin, reference compound], the Pe experimental in data set [2] (setting [9]) was 0,53 10-6 cm s-1. For the same compound, in [2] (Table S2, PAMPA-BBB), the Classification result is “CNS -”. Also, the Pe literatura in [3] is listed as 0,9 10-6 cm s-1.
In the case of `CC(=O)N1CCN(c2ccc(OCC3COC(Cn4ccnc4)(c4ccc(Cl)cc4Cl)O3)cc2)CC1` (stereo not shown) [Ketoconazole, reference compound], in [1], the Classification result is given as “HIGH (high intestinal permeability: >70%)”, the “Pe Exp” value is on record as 4,93 10-6 cm/s and the Fa is 84,68%. Further, in [4], the “Pe Lit” value is listed as 3,3 10-6cm/s.
Regarding `C[C@]12C=CC(=O)C=C1CC[C@@H]1[C@@H]2C(=O)C[C@@]2(C)[C@H]1CC[C@]2(O)C(=O)CO` [Prednisone, reference compound], the “Pe Exp” value in data set [1] was 3,09 10-6 cm/s.
Turning to `CNC(=C[N+](=O)[O-])NCCSCc1ccc(CN(C)C)o1` [Ranitidine, reference compound], in [1], the Classification entry is recorded as “LOW (low intestinal permeability: <29%)”, the “Pe Exp” value is reported as 0,38 10-6 cm/s and the Fa was 13,48%.
Regarding `O=C(O)c1cc(/N=N/c2ccc(S(=O)(=O)Nc3ccccn3)cc2)ccc1O` [Sulfassalazine], the “Pe Lit” value in data set [4] is 0,3 10-6cm/s.
Turning to `CC(=O)Oc1ccccc1C(=O)O` [acetylsalicylic acid, reference compound], the “Analgesia in the first phase of the formalin test” value in data set [8] is “only morphine (2.5 mg/kg) promoted significant analgesia”. In data set [1], the Classification entry is listed as “AVERAGE (medium intestinal permeability: 30–69%)”, the “Pe Exp” value is on record as 1,69 10-6 cm/s and the Fa was 47,36%. The “Pe Lit” value in [4] is given as 3,8 10-6cm/s.
For `CN1CC[C@]23c4c5ccc(O)c4O[C@H]2[C@@H](O)C=C[C@H]3[C@H]1C5` [morphine, reference compound], in data set [8], the “Analgesia in the first phase of the formalin test” value is “promoted significant analgesia”.
